Reference: ChEMBL document CHEMBL5236635, “Structure-Based Drug Design and Synthesis of Novel N-Aryl-2,4-bithiazole-2-amine CYP1B1-Selective Inhibitors in Overcoming Taxol Resistance in A549 Cells” (J Med Chem, 2022)
The source made the active and inactive calls. The calls are words filed in the database; no cut-off is given here.

Columns and labels:
A549/TR [1] = test: Synergistic antiproliferative activity against human A549/Taxol cells assessed as inhibition of cell growth at 3.75 to 30 uM incubated for 72 hrs in presence of taxol by MTT assay; format: functional; design: scale not given: the % may be the effect or the level left; conditions: dose 3.75-30 µM
A549/TR [2] = test: Reversal of taxol resistance human A549/Taxol cells assessed as increase in sensitivity incubated for 72 hrs by MTT assay; format: functional, cell-based
A549/TR [3] = test: Reversal of taxol resistance human A549/Taxol cells assessed as increase in sensitivity at 5 uM incubated for 72 hrs by MTT assay; format: functional, cell-based
A549/TR [4] = test: Synergistic antiproliferative activity against human A549/Taxol cells assessed as increase in taxol by measuring combination index at 3.75 uM incubated for 72 hrs in presence of 0.06 uM taxol by MTT assay; format: functional
A549/TR [5] = test: Synergistic antiproliferative activity against human A549/Taxol cells assessed as increase in taxol by measuring combination index at 3.75 uM incubated for 72 hrs in presence of 0.50 uM taxol by MTT assay; format: functional
A549/TR [6] = test: Synergistic antiproliferative activity against human A549/Taxol cells assessed as increase in taxol by measuring combination index at 7.50 uM incubated for 72 hrs in presence of 0.06 uM taxol by MTT assay; format: functional; conditions: dose 7.5 µM
A549/TR [7] = test: Synergistic antiproliferative activity against human A549/Taxol cells assessed as increase in taxol by measuring combination index at 7.50 uM incubated for 72 hrs in presence of 0.13 uM taxol by MTT assay; format: functional; conditions: dose 7.5 µM
A549/TR [8] = test: Synergistic antiproliferative activity against human A549/Taxol cells assessed as increase in taxol by measuring combination index at 15 uM incubated for 72 hrs in presence of 1 uM taxol by MTT assay; format: functional
A549/TR [9] = test: Synergistic antiproliferative activity against human A549/Taxol cells assessed as increase in taxol by measuring combination index at 30 uM incubated for 72 hrs in presence of 0.06 uM taxol by MTT assay; format: functional
A549/TR [10] = test: Synergistic antiproliferative activity against human A549/Taxol cells assessed as increase in taxol by measuring combination index at 30 uM incubated for 72 hrs in presence of 0.13 uM taxol by MTT assay; format: functional
A549/TR [11] = test: Synergistic antiproliferative activity against human A549/Taxol cells assessed as increase in taxol by measuring combination index at 30 uM incubated for 72 hrs in presence of 0.50 uM taxol by MTT assay; format: functional
A549/TR [12] = test: Reversal of taxol resistance in human A549/Taxol cells assessed as suppression of P-gp expression level at 2.5 to 10 uM incubated for 20 mins by multimode plate reader analysis; format: functional, cell-based; conditions: dose 2.5-10 µM
A549/TR [13] = test: Inhibition of cell migration in human A549/Taxol cells incubated for 36 hrs; format: functional, cell-based; conditions: dose 2.5-10 µM
[14] = molecular target: T1, Mitogen-activated protein kinase; ERK1/ERK2 (Homo sapiens) (UniProt P27361+P28482); test: Inhibition of ERK1/2 pathway in human A549/Taxol cells assessed as decrease in phosphorylated ERK1/2 level at 2.5 to 5 uM incubated for 24 hrs; format: cell-based; conditions: dose 2.5-5 µM
NCI-H460 [15] = test: Inhibition of DMBA-induced AKT overexpression in human taxol resistance NCI-H460 cells incubated for 24 hrs; format: functional, cell-based; conditions: dose 5.0 µM
A549 [16] = test: Inhibition of DMBA-induced CYP1B1 overexpression in human A549 cells assessed as increase in FAK level incubated for 24 hrs by densitometry analysis; format: functional, cell-based; conditions: dose 5.0 µM
A549 [17] = test: Inhibition of DMBA-induced CYP1B1 overexpression in human A549 cells assessed as increase in Paxillin level incubated for 24 hrs by densitometry analysis; format: functional, cell-based; conditions: dose 5.0 µM
A549 [18] = test: Inhibition of DMBA-induced CYP1B1 overexpression in human A549 cells assessed as supression of FAK pathway at 5 uM incubated for 24 hrs by densitometry analysis; format: functional, cell-based
A549 [19] = test: Inhibition of cell migration in DMBA-induced human A549 cells at 5 uM incubated for 48 hrs by inverted microscopic analysis; format: functional, cell-based
NCI-H460 [20] = test: Inhibition of cell migration in DMBA-induced human NCI-H460 cells at 5 uM incubated for 48 hrs by inverted microscopic analysis; format: functional, cell-based
NCI-H460 [21] = test: Inhibition of cell invasion in DMBA-induced human NCI-H460 cells at 5 uM by optical microscopic analysis; format: functional, cell-based
A549 [22] = test: Inhibition of DMBA-induced CYP1B1 overexpression in human A549 cells assessed as increase in snail level incubated for 24 hrs by densitometry analysis; format: functional, cell-based; conditions: dose 5.0 µM
NCI-H460 [23] = test: Inhibition of DMBA-induced CYP1B1 overexpression in human NCI-H460 cells assessed as increase in snail level incubated for 24 hrs by densitometry analysis; format: functional, cell-based; conditions: dose 5.0 µM
NCI-H460 [24] = test: Inhibition of DMBA-induced CYP1B1 overexpression in human NCI-H460 cells assessed as effect on MMP-9 level at 5 uM incubated for 24 hrs by densitometry analysis; format: functional, cell-based
NCI-H460 [25] = test: Inhibition of DMBA-induced CYP1B1 overexpression in human NCI-H460 cells assessed as effect on Snail level at 5 uM incubated for 24 hrs by densitometry analysis; format: functional, cell-based
A549 [26] = test: Inhibition of DMBA-induced CYP1B1 overexpression in human A549 cells assessed as decrease in Vimentin level at 5 uM incubated for 24 hrs by densitometry analysis; format: functional, cell-based
Cytochrome P450 1A2 = molecular target: T2, Cytochrome P450 1A2 (Homo sapiens, UniProt P05177); test: Inhibition of recombinant human CYP1A2 using 7-ethyl-0-resorufin as substrate incubated for 30 mins in presence of NADPH by EROD assay
T2 sequence (P05177 whole entry): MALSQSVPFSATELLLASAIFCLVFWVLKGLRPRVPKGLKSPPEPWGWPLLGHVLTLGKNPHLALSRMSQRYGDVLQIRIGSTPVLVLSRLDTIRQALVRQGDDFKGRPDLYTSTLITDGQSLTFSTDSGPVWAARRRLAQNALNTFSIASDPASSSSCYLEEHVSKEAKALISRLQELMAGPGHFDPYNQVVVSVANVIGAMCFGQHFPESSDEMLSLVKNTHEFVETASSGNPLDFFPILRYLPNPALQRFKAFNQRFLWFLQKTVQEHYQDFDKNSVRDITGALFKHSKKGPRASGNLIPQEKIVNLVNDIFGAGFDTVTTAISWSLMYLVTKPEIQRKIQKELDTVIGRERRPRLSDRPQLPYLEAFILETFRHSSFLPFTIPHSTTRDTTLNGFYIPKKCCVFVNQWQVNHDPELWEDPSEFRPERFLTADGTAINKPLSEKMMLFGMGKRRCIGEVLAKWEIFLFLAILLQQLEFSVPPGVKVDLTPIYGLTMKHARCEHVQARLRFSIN

A549/TR [27] = test: Reversal of taxol resistance in human A549/Taxol cells assessed as increase in Rho123 accumulation at 5 uM incubated for 20 mins by multimode plate reader analysis; format: functional, cell-based
[28] = molecular target: T1, Mitogen-activated protein kinase; ERK1/ERK2 (Homo sapiens); test: Inhibition of ERK1/2 pathway in human A549/Taxol cells assessed as decrease in phosphorylated ERK1/2 level at 5 uM incubated for 24 hrs; format: cell-based
[29] = molecular target: Proto-oncogene tyrosine-protein kinase Src (Homo sapiens) (UniProt P12931); test: Inhibition of SRC pathway in human A549/Taxol cells assessed as decrease in phosphorylated FAK level at 5 uM incubated for 24 hrs; format: cell-based
Sequence of Proto-oncogene tyrosine-protein kinase Src (Homo sapiens) (P12931 2-536 limits assumed): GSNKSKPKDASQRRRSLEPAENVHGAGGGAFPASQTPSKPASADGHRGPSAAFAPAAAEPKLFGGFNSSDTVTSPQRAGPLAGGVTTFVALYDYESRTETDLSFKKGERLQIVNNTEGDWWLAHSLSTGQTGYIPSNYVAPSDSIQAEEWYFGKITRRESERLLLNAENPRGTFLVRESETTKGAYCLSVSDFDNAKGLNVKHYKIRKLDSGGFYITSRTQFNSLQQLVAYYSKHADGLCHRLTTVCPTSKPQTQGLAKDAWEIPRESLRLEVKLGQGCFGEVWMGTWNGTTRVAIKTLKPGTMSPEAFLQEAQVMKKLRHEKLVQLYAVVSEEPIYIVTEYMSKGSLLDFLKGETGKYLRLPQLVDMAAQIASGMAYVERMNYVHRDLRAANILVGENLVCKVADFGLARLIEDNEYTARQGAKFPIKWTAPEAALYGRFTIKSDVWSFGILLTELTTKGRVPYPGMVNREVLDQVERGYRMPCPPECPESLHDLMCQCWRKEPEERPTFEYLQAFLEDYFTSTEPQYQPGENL

T1 sequence (P27361 whole entry, looked up): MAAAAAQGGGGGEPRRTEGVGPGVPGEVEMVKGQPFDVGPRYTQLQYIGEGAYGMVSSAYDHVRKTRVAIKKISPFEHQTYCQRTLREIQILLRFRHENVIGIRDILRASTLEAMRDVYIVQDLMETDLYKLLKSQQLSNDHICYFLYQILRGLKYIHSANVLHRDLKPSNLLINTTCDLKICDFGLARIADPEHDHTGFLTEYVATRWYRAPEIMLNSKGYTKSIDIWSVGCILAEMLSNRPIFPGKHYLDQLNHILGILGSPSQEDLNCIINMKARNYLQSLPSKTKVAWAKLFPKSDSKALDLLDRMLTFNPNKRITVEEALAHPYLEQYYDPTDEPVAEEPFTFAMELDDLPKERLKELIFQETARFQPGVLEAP
T1 sequence (P28482 whole entry, looked up): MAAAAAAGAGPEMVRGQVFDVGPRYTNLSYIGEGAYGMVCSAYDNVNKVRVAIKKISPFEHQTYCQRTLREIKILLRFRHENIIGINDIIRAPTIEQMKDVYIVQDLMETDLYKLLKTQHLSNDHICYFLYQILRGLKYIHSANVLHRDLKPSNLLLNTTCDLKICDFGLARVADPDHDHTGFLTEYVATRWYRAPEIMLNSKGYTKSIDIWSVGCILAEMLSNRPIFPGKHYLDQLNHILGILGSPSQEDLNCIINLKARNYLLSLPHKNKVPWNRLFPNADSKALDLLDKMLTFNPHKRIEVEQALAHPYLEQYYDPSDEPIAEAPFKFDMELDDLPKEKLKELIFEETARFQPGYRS

SMILES: COc1cc(Nc2nc(-c3nc(-c4ccccc4F)cs3)cs2)cc(OC)c1
- Activity (A549/TR [1]): 62%
- Activity (A549/TR [2]): Active
- Activity (A549/TR [3]): Active
- CI (A549/TR [4]): 0.64
- CI (A549/TR [5]): 0.98
- CI (A549/TR [6]): 0.68
- CI (A549/TR [7]): 0.31
- CI (A549/TR [8]): 0.71
- CI (A549/TR [9]): 0.09
- CI (A549/TR [10]): 0.11
- CI (A549/TR [11]): 0.2
- Activity (A549/TR [12]): Active
- inhibition (A549/TR [13]): Dose-Dependent Effect
- inhibition [14]: Active

SMILES: COc1cc(/C=C/c2ccc(OC)cc2OC)cc(OC)c1
- inhibition (NCI-H460 [15]): Dose-Dependent Effect
- inhibition (A549 [16]): Dose-Dependent Effect
- inhibition (A549 [17]): Dose-Dependent Effect
- inhibition (A549 [18]): Active
- inhibition (A549 [19]): Active
- inhibition (NCI-H460 [20]): Active
- inhibition (NCI-H460 [21]): Active
- inhibition (A549 [22]): Dose-Dependent Effect
- inhibition (NCI-H460 [23]): Dose-Dependent Effect
- inhibition (NCI-H460 [24]): inactive
- inhibition (NCI-H460 [25]): inactive
- inhibition (A549 [26]): inactive
- IC50 (Cytochrome P450 1A2): 2.39 µM
- Activity (A549/TR [2]): Active
- Activity (A549/TR [27]): Active
- inhibition [28]: Active
- inhibition [29]: Active
